Columns and labels:
CCR3 = biological target: T1, CCR3 (Homo sapiens, UniProt P51677); assay: NanoBRET screen HiBiT-CCR3 in HEK293; assay type: binding; settings: CCR3
T1 construct: purchased Promega (in-house HiBiT-GPCR construct library, NanoBRET)
T1 sequence (P51677 1-355): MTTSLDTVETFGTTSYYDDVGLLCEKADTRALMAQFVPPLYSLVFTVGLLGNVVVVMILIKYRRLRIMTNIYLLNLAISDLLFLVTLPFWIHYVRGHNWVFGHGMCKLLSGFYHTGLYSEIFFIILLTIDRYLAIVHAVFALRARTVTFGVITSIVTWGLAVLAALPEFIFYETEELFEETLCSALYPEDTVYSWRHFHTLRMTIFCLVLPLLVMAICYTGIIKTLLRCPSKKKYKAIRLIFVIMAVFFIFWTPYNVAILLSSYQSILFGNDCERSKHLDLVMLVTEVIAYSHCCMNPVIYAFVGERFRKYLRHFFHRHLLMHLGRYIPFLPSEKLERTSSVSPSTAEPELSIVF
Protocol: (§1) Each tracer candidate was screened across the entire library of HiBiT-GPCR constructs using NanoBRET as the detection modality. As depicted in Figure 4A, the specificity of interactions was evaluated through decrease in BRET due to competitive displacement of a bound tracer by excess parental compound. Each tracer was analyzed for binding to each HiBiT-GPCR fusion in the absence and in the presence of competing parental compound. Briefly, HEK293 cells were transfected with HiBiT-GPCR constructs diluted into promoterless DNA to reduce expression and maximize translocation to the cell surface. Each tracer candidate was then screened at concentrations of 1 μM and 0.1 μM across cells expressing these fusions. Cells were treated for 1.5 h with tracer either alone or in the presence of 20 μM competing parental compound (i.e., control). BRET was measured upon addition of purified LgBiT and subsequent complementation with HiBiT genetically fused to a GPCR. The specificity of interactions was assessed through a decrease in BRET signal due to competitive displacement of the bound tracer. To further gauge the robustness of these interactions, the fold response over the control (i.e., BRETtracer/BRETcontrol) was calculated. We chose a 1.5-fold response, which translates to ≥7-fold signal over noise as the minimal threshold required to score an interaction as positive. […]. Below we highlight the screening results obtained for our exemplary fluorescent tracers based on Clozapine, Amitriptyline and AZD1283.
(§2) HiBiT-GPCR DNA constructs were diluted in 10 mM Tris pH 8 to a final concentration of 0.01 μg/μL, arrayed in 96-well plates and stored at −20 °C. For transfection, HEK293 cells were suspended in Opti-MEM (without phenol red) supplemented with 2% fetal bovine serum (Seradigm) and 100 units/mL penicillin–streptomycin (Gibco) at a final concentration of 220,000 cells/mL and dispensed into white 96-well plates at 90 μL/well. Subsequent transfections and screens were carried using an Agilent Bravo Automated Liquid Handling Platform. First, the 96-well HiBiT DNA arrays were diluted 25-fold in Opti-MEM (without serum or phenol red) to a final concentration of 0.0004 μg/μL and 20 μL of the diluted DNAs were transferred into new 96-well plates. Next, promoterless carrier DNA (1 μg/μL) was diluted 25-fold (0.04 μg/μL) and then dispensed into the diluted arrays at 20 μL/well. Following brief mixing, Viafect transfection reagent (Promega) diluted 16-fold into Opti-MEM was dispensed into the plates at 40 μL/well. After mixing by pipetting, plates were incubated for 10 min on the pipetting station deck. The DNA-transfection reagent complexes were then added to plates containing cells. To facilitate the screen, 10 μL of DNA-transfection reagent complexes were added in duplicates to the top 4 and bottom 4 rows, resulting in two identical 48-well arrays per plate. Plates with transfected cells were incubated for 18–20 h at 37 °C/5% CO2. A screen of each tracer across the entire library using two different concentrations requires duplicate plates of transfected cells. Depending on the number of tracers being screened, transfections can be scaled up using the same ratios. The next day, for each tracer, four 20× screening solutions in tracer dilution buffer (Promega) were prepared: two duplicates at final concentration of 20 μM and two duplicates at a final concentration of 2 μM. A competing unmodified compound was added to one of each duplicate at a final concentration of 400 μM. The four resulting solutions were diluted 4-fold in Opti-MEM without serum or phenol red to generate 5× solutions (5 µM and 0.5 µM tracer +/− 100 μM competing compound). To screen the library, a BioTek MultiFlo FX liquid dispenser was used to dispense 22.5 µL of tracer solution to the top 4 rows and 22.5 µL tracer + competing compound solution to the 4 bottom rows. Plates were briefly mixed on an orbital shaker and incubated for 1.5 h at room temperature. […]

CCR9 = biological target: T2, CCR9 (Homo sapiens, UniProt P51686); assay: NanoBRET screen HiBiT-CCR9 in HEK293; assay type: binding; settings: CCR9
T2 construct: purchased Promega (in-house HiBiT-GPCR construct library, NanoBRET)
T2 sequence (P51686 1-369): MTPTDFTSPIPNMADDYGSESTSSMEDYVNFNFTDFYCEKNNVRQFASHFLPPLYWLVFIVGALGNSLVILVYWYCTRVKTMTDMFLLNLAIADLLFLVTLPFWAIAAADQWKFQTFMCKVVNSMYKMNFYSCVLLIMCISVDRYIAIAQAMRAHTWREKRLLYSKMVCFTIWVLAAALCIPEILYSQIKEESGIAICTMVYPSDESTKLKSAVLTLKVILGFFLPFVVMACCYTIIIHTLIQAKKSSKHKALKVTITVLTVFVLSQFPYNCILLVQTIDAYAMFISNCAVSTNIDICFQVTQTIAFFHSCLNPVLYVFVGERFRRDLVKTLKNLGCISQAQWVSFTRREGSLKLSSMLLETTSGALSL
Protocol: as §1, §2

Structure (SMILES) | NanoBRET Fold Response (CCR3; tracer 0.1μM) | NanoBRET Fold Response (CCR3; tracer 1μM) | NanoBRET Fold Response (CCR9; tracer 0.1μM) | NanoBRET Fold Response (CCR9; tracer 1μM) | NanoBRET Fold Response (CCR3; 0.1μM) | NanoBRET Fold Response (CCR3; 1μM) | NanoBRET Fold Response (CCR9; 0.1μM) | NanoBRET Fold Response (CCR9; 1μM)
COc1ccccc1N1CCN(CCCCN2C(=O)c3ccc(CNC(=O)CCOCCNC(=O)c4ccc(CNC(=O)CCc5ccc6n5[B-](F)(F)[N+]5=C(c7ccc[nH]7)C=CC5=C6)cc4)cc3C2=O)CC1 [NAN-190-3-NB590] | 1.02 | 1.02 | 1.14 | 1.04 |  |  |  | 
O=C(CCc1ccc2n1[B-](F)(F)[N+]1=C(c3ccc[nH]3)C=CC1=C2)NCc1ccc(C(=O)NCCOCCC(=O)N[C@@H]2CC[C@@]3(O)[C@H]4Cc5ccc(O)c6c5[C@@]3(CCN4CC3CC3)[C@H]2O6)cc1 [Naltrexone-3-NB590] | 1.35 | 0.89 | 0.55 | 0.92 |  |  |  | 
Cc1cc2c(s1)Nc1ccccc1N=C2N1CCN(CCCNC(=O)CCOCCOCCOCCOCCNC(=O)CCc2ccc3n2[B-](F)(F)[N+]2=C(c4ccc[nH]4)C=CC2=C3)CC1 [Olanzapine-a-2-NB590] | 1.19 | 1.22 | 1.03 | 1.17 |  |  |  | 
O=C(CCc1ccc2n1[B-](F)(F)[N+]1=C(c3ccc[nH]3)C=CC1=C2)NCc1ccc(C(=O)NCCOCCOCCNCC(O)COc2cccc3ccccc23)cc1 (stereo not drawn) [Propranolol-3-NB590] |  |  |  |  | 1.04 | 1.01 | 1.08 | 1.00
O=C(CCc1ccc2n1[B-](F)(F)[N+]1=C(c3ccc[nH]3)C=CC1=C2)NCCOCCOCCNC(=O)OCCOCCN1CCN(C2=Nc3ccccc3Sc3ccccc32)CC1 [Quetiapine-a-2-NB590] | 1.11 | 0.98 | 1.05 | 0.96 |  |  |  | 
Cc1nc2n(c(=O)c1CCN1CCC(c3noc4cc(F)ccc34)CC1)CCCC2OC(=O)NCCOCCOCCOCCOCCNC(=O)CCc1ccc2n1[B-](F)(F)[N+]1=C(c3ccc[nH]3)C=CC1=C2 (stereo not drawn) [Risperidone-2-NB590] | 1.06 | 1.27 | 1.02 | 0.94 |  |  |  | 
CC(C)N(CC[C@H](c1ccccc1)c1cc(CCNC(=O)CCOCCOCCOCCOCCNC(=O)CCc2ccc3n2[B-](F)(F)[N+]2=C(c4ccc[nH]4)C=CC2=C3)ccc1O)C(C)C [Tolterodine-2-NB590] | 1.63 | 1.01 | 1.12 | 0.95 |  |  |  | 
CC(C)N(CC[C@H](c1ccccc1)c1cc(CCNC(=O)c2ccc(CNC(=O)CCc3ccc4n3[B-](F)(F)[N+]3=C(c5ccc[nH]5)C=CC3=C4)cc2)ccc1O)C(C)C [Tolterodine-BZ-NB590] | 0.98 | 0.72 | 0.74 | 1.14 |  |  |  | 
CCCn1c(=O)c2[nH]c(-c3ccc(OCC(=O)NCCNC(=O)CCOCCNC(=O)c4ccc(CNC(=O)CCc5ccc6n5[B-](F)(F)[N+]5=C(c7ccc[nH]7)C=CC5=C6)cc4)cc3)nc2n(CCC)c1=O [XAC-3-NB590] | 1.28 | 0.79 | 0.95 | 1.57 |  |  |  | 

From paper PMC8151276, “An Integrated Approach toward NanoBRET Tracers for Analysis of GPCR Ligand Engagement” (Molecules, 2021)
